Data published in article PMC11315935, “Multi-layered heterochromatin interaction as a switch for DIM2-mediated DNA methylation” (Nature Communications, 2024).

Legend:
[1] = test system: (CTA)12/(TAG)12 36-mer DNA duplex; assay: In vitro DNA methylation assay of DIM2 (WT or mutant); type: biochemical; design: DNA methylation activity: unit not given here; conditions: 30 min
HP1 = assay: Size-exclusion chromatography of DIM2-HP1 complex; type: binding, Neurospora Crassa; conditions: 1.0 µM DIM2 and/or 2.5 µM HP1, Superdex 200 increase 10/300 GL, pH 7.5
Experimental: For size-exclusion chromatography analysis, 400 µL of the sample mixture containing 1.0 µM DIM2 and/or 2.5 µM HP1 was loaded onto Superdex 200 increase 10/300 GL column (GE Healthcare) and eluted at a flow rate of 0.5 mL/min, in the buffer containing 20 mM Tris-HCl (pH 7.5), 100 mM NaCl, 5% glycerol, and 5 mM DTT. The proteins in each fraction were then visualized by SDS-PAGE.

DIM2 = assay: In vitro DNA methylation assay: effect of HP1 and H3 peptides on DIM2 activity; type: biochemical, Neurospora Crassa; conditions: 36-mer DNA duplex, 1.0 µM peptide and/or 2 µM HP1
Experimental: In vitro DNA methylation assay was performed in a 20-µL reaction mixture. For the substrate specificity assay, the following DNA duplexes were used as substrates: CG DNA (Upper strand: 5’-[…]-3’), hemimethylated CG DNA (Upper strand: 5’-TAAATTTXGATTAATAAT-3’, X = 5-methylcytosine; Lower strand: 5’-[…] -3’), CHG DNA (Upper strand: 5’-[…]-3’), and CHH DNA (Upper strand: 5’-[…]-3’). The reaction mixture contains 0.25 µM DIM2, 1.0 µM DNA duplex, 1.0 µM synthesized H3K9me3 peptide (residues 1-24 of H3 plus a C-terminal tryptophan), 0.5 µM HP1, and 0.56 µM S-adenosyl-L-[methyl-^3H] methionine with a specific activity of 18 Ci/mmol (PerkinElmer) in buffer containing 50 mM Tris-HCl (pH 8.0), 100 mM NaCl, 0.05% β-mercaptoethanol, 5% glycerol, and 200 µg/mL BSA. For the rest of the DNA methylation assay, each reaction mixture contains 1.0 µM DIM2, […] methionine with a specific activity of 18 Ci/mmol (PerkinElmer) in buffer containing 50 mM Tris-HCl (pH 8.0), 100 mM NaCl, 0.05% β-mercaptoethanol, 5% glycerol, and 200 µg/mL BSA. In addition, 1.0 µM synthesized H3K9me3 or H3K9me0 peptide (residues 1-24 of H3 plus a C-terminal tryptophan) and/or 2 µM HP1 protein was included to evaluate the effect of H3 and HP1 regulation. The reaction mixture was incubated at 30 °C for 30 min, unless indicated otherwise, before being quenched by the addition of 5 µL of 10 mM cold SAM. After the reaction, 8 μL of the mixtures was loaded onto Hybond N nylon membrane (GE Healthcare), which was left to dry out at room temperature. The membrane was subsequently washed with 0.2 M ammonium bicarbonate (pH 8.2) two times (20 min per time), deionized water (20 min) once, and 95% ethanol (5 min) once. After air dried, the membrane carrying each sample was transferred into a vial containing 3 mL scintillation buffer (Fisher). The tritium scintillation was measured and recorded by a Beckman LS6500 counter. Each the reaction was repeated three times.

DIM2, W581A = assay: ITC binding of H3K9me3 peptide, DIM2 W581A; design: species or system Neurospora Crassa
Experimental: (§1) ITC measurements were performed using a MicroCal iTC200 instrument (GE Healthcare). To measure the bindings between proteins and H3K9me3 peptide, 0.04–0.05 mM DIM2, WT or mutant (W261A, W581A, or W261A/W581A), DIM2 RFTS domain, or HP1, WT or mutant (W98A), was titrated with 0.5 mM histone peptide at 7 °C. Prior to the titration, both peptide and protein samples were subjected to overnight dialysis against buffer containing 20 mM Tris-HCl (pH 7.5), 100 mM NaCl, and 1 mM β-mercaptoethanol. Buffer to buffer titration was performed to ensure no abnormality of baseline. Analyses of all data were performed with MicroCal Origin software, fitted with single-site binding mode.

DIM2, W261A/W581A = assay: ITC binding of H3K9me3 peptide, DIM2 W261A/W581A; design: species or system Neurospora Crassa; conditions: 7 °C, pH 7.5, NDB, no detectable binding
Experimental: as §1

DIM2, W261A = assay: ITC binding of H3K9me3 peptide, DIM2 W261A; design: species or system Neurospora Crassa
Experimental: as §1

For “DIM2WT: Neurospora Crassa DIM2 (NCBI accession no. XP_959891.1) (residues 1-1242)”, the “DNA methylation activity of DIM2 (in words)” value ([1]; 1.0 µM DIM2, 30 °C, pH 8.0) was “no detectable activity”, the DNA methylation activity ([1]; Fig. 1b, 1.0 µM DIM2, 1.0 µM DNA duplex, 0.56 µM [methyl-3H]SAM, 1.0 µM H3 peptide and/or 2 µM HP1, pH 8.0, 30 °C, tritium scintillation, replicate 1) was -0.021 and the DNA methylation activity ([1]; Fig. 1b, 1.0 µM DIM2, 1.0 µM DNA duplex, 0.56 µM [methyl-3H]SAM, 1.0 µM H3 peptide and/or 2 µM HP1, pH 8.0, 30 °C, tritium scintillation, replicate 2) was -0.01. The DNA methylation activity ([1]; Fig. 1b, 1.0 µM DIM2, 1.0 µM DNA duplex, 0.56 µM [methyl-3H]SAM, 1.0 µM H3 peptide and/or 2 µM HP1, pH 8.0, 30 °C, tritium scintillation, replicate 3) was -0.04, the DNA methylation activity ([1]; Fig. 2g, in the presence of HP1 (2 µM) and H3_1-24K9me3 peptide (1.0 µM), 1.0 µM DIM2, 30 °C, pH 8.0, replicate 1) was 20.908 and the DNA methylation activity ([1]; Fig. 2g, in the presence of HP1 (2 µM) and H3_1-24K9me3 peptide (1.0 µM), 1.0 µM DIM2, 30 °C, pH 8.0, replicate 2) was 20.644. The DNA methylation activity ([1]; Fig. 2g, in the presence of HP1 (2 µM) and H3_1-24K9me3 peptide (1.0 µM), 1.0 µM DIM2, 30 °C, pH 8.0, replicate 3) was 18.328, the DNA methylation activity ([1]; Fig. 5f, DNA binding-associated mutants, 1.0 µM DIM2, 1.0 µM DNA duplex, 30 °C, pH 8.0, replicate 1) was 14.337 and the DNA methylation activity ([1]; Fig. 5f, DNA binding-associated mutants, 1.0 µM DIM2, 1.0 µM DNA duplex, 30 °C, pH 8.0, replicate 2) was 13.213. The DNA methylation activity ([1]; Fig. 5f, DNA binding-associated mutants, 1.0 µM DIM2, 1.0 µM DNA duplex, 30 °C, pH 8.0, replicate 3) was 13.147, the DNA methylation activity ([1]; Fig. 3h, in the presence of HP1 (2 µM) and H3_1-24K9me3 peptide (1.0 µM), 1.0 µM DIM2, 30 °C, pH 8.0, replicate 1) was 22.922 and the DNA methylation activity ([1]; Fig. 3h, in the presence of HP1 (2 µM) and H3_1-24K9me3 peptide (1.0 µM), 1.0 µM DIM2, 30 °C, pH 8.0, replicate 2) was 23.125. It also gave a DNA methylation activity ([1]; Fig. 3h, in the presence of HP1 (2 µM) and H3_1-24K9me3 peptide (1.0 µM), 1.0 µM DIM2, 30 °C, pH 8.0, replicate 3) of 22.99, a DNA methylation activity ([1]; Fig. 6d, H3_1-24K9me3 binding-associated mutants, 1.0 µM DIM2, 1.0 µM DNA duplex, 30 °C, pH 8.0, replicate 1) of 19.42 and a DNA methylation activity ([1]; Fig. 6d, H3_1-24K9me3 binding-associated mutants, 1.0 µM DIM2, 1.0 µM DNA duplex, 30 °C, pH 8.0, replicate 2) of 16.017. The DNA methylation activity ([1]; Fig. 6d, H3_1-24K9me3 binding-associated mutants, 1.0 µM DIM2, 1.0 µM DNA duplex, 30 °C, pH 8.0, replicate 3) was 17.874 and the “DIM2-HP1 complex formation (in words)” value (HP1) was “co-migration”.

In the case of “H31-24K9me3: synthesized H3K9me3 peptide (residues 1-24 of H3 plus a C-terminal tryptophan)”, the “effect on DNA methylation activity of DIM2 (in words)” value (DIM2) is reported as “failed to activate DIM2 appreciably”, the “reduction of peptide-binding affinity vs WT DIM2” value (DIM2, W581A) is reported as ~10 fold and the Kd (DIM2, W261A/W581A) is reported as “NDB”. For the same substance, the Kd (DIM2, W261A/W581A; listed as H3K9me3 peptide) was “complete abolishment”, the “enhanced binding affinity vs WT DIM2” value (DIM2, W261A; W261A vs WT) was ~ 2.3 fold and the “BAH1-H3K9me3 binding stronger than RFTS-H3K9me3 binding by” value (DIM2, W261A; in the absence of DNA) was ~ 24 fold.
